Test results reported in publication PMC11078746 (Nature, 2024).

Columns and labels:
[1] = tested on: LS411N; experiment: CFA 10-14 day clonogenic assay; assay type: cell-based; settings: Homo sapiens, LS-411N
[2] = tested on: TOV21G; experiment: 4 day proliferation assay (CellTiter-Glo); settings: Homo sapiens, 96 h, read-out: 4 day assay GI50
[3] = tested on: TGBC11TKB; experiment: 4 day proliferation assay (CellTiter-Glo); settings: Homo sapiens, 96 h, read-out: 4 day assay GI50
[4] = tested on: HEC1B; experiment: CFA 10-14 day clonogenic assay; assay type: cell-based; settings: Homo sapiens, HEC-1B
[5] = tested on: SNGM; experiment: CFA 10-14 day clonogenic assay; assay type: cell-based; settings: Homo sapiens
[6] = tested on: TOV21G; experiment: CFA 10-14 day clonogenic assay; assay type: cell-based; settings: Homo sapiens
[7] = tested on: LOVO; experiment: 4 day proliferation assay (CellTiter-Glo); settings: Homo sapiens, 96 h, read-out: 4 day assay GI50
[8] = tested on: SNUC4; experiment: 4 day proliferation assay (CellTiter-Glo); settings: Homo sapiens, SNU-C4, 96 h, read-out: 4 day assay GI50
[9] = tested on: RL952; experiment: CFA 10-14 day clonogenic assay; assay type: cell-based; settings: Homo sapiens, RL95-2
[10] = tested on: OC314; experiment: CFA 10-14 day clonogenic assay; assay type: cell-based; settings: Homo sapiens, OC-314
[11] = tested on: DLD-1 (HCT15); experiment: CFA 10-14 day clonogenic assay; assay type: cell-based; settings: Homo sapiens
[12] = tested on: IGROV1; experiment: CFA 10-14 day clonogenic assay; assay type: cell-based; settings: Homo sapiens, IGROV-1
[13] = tested on: Ishikawa; experiment: 4 day proliferation assay (CellTiter-Glo); settings: Homo sapiens, 96 h, read-out: 4 day assay GI50
[14] = tested on: SNU520; experiment: CFA 10-14 day clonogenic assay; assay type: cell-based; settings: Homo sapiens
[15] = tested on: CAL33; experiment: 4 day proliferation assay (CellTiter-Glo); settings: Homo sapiens, CAL-33, 96 h, read-out: 4 day assay GI50
[16] = tested on: TGBC11TKB; experiment: CFA 10-14 day clonogenic assay; assay type: cell-based; settings: Homo sapiens
[17] = tested on: DLD-1 (HCT15); experiment: 4 day proliferation assay (CellTiter-Glo); settings: Homo sapiens, 96 h, read-out: 4 day assay GI50
[18] = tested on: CYP (all isoforms tested); experiment: CYP inhibition; assay type: in vitro ADME
[19] = tested on: HEC59; experiment: 4 day proliferation assay (CellTiter-Glo); settings: Homo sapiens, 96 h, read-out: 4 day assay GI50
[20] = tested on: Ishikawa; experiment: CFA 10-14 day clonogenic assay; assay type: cell-based; settings: Homo sapiens
[21] = tested on: RKO; experiment: CFA 10-14 day clonogenic assay; assay type: cell-based; settings: Homo sapiens
[22] = tested on: LIM2405; experiment: CFA 10-14 day clonogenic assay; assay type: cell-based; settings: Homo sapiens
[23] = tested on: HEC108; experiment: CFA 10-14 day clonogenic assay; assay type: cell-based; settings: Homo sapiens
[24] = biological target: COX1 (Homo sapiens, UniProt P23219); experiment: Safety pharmacology panel
[25] = tested on: HEC151; experiment: CFA 10-14 day clonogenic assay; assay type: cell-based; settings: Homo sapiens
[26] = tested on: LS513; experiment: 4 day proliferation assay (CellTiter-Glo); settings: Homo sapiens, LS-513, 96 h, read-out: 4 day assay GI50
[27] = tested on: JHUEM1; experiment: CFA 10-14 day clonogenic assay; assay type: cell-based; settings: Homo sapiens
[28] = tested on: SNU407 xenograft; experiment: MSI xenograft model efficacy; assay type: in vivo, mouse; settings: SNU407, colorectal carcinoma; 60 or 120 mg/kg
Description: (§1) All animal studies were conducted in accordance with ethics and procedures covered by permit BS-2275 and BS-1975 issued by the Kantonales Veterinäramt Basel-Stadt and in strict adherence to guidelines of the Eidgenössisches Tierschutzgesetz and the Eidgenössische Tierschutzverordnung, Switzerland. All animal studies were approved by the internal ethics committee. All animals had access to food and water ad libitum and were identified with transponders. They were housed in a specific-pathogen-free facility in IVC racks under a 12 h–12 h light–dark cycle. To establish cell-line-derived xenograft models, 6–7-week-old female athymic nude (Crl:NU(NCr)-Foxn1^nu) or SCID-BEIGE (CB17.Cg-PrkdcscidLystbg-J/Crl) mice from Charles River were engrafted subcutaneously with 5 million tumour cells in HBSS (H6648, Sigma-Aldrich). For SNU-407, Lovo, IM95, RL95.2, Ishikawa and IGROV-1, the cells were concentrated in 50% Matrigel (354234, Corning). Patient-derived xenografts were induced and expanded by transplantation as previously described. […] For the efficacy experiment, mice were randomized into groups (n = 5–6) for a mean tumour size of 100–150 mm^3. […] Blood samples were collected on day 7 and 91. […] Tumour responses are reported with the measures of tumour volumes from the treatment start. […] Animals were randomized (n = 3) and tumour samples were collected at 0, 1, 4, 8 and 24 h on the first day and then collected 4 h after the last treatment on day 3, 8, 10, 14 (including a 24 h timepoint), 17 and 21. Tumours were excised, weighed, either frozen in liquid nitrogen and cryogenic dry pulverized with the CryoPrep system (model CP-02, Covaris) or processed to FFPE after fixation. […] On day 12, blood samples were collected for PK analysis. On the last day (3 h after the last treatment), tumours were excised, weighed, frozen in liquid nitrogen and cryogenic dry pulverized for PD analysis.

[29] = tested on: LS411N xenograft; experiment: MSI xenograft model efficacy; assay type: in vivo, mouse; settings: colorectal carcinoma, 60 or 120 mg/kg
Description: as §1

[30] = tested on: 5148-HX xenograft; experiment: MSI xenograft model efficacy; assay type: in vivo, mouse; settings: Gastric carcinoma, 60 or 120 mg/kg
Description: as §1

[31] = tested on: Ishikawa xenograft; experiment: MSI xenograft model efficacy; assay type: in vivo, mouse; settings: Endometrial carcinoma, 60 or 120 mg/kg
Description: as §1

[32] = tested on: 5441-HX xenograft; experiment: MSI xenograft model efficacy; assay type: in vivo, mouse; settings: colorectal carcinoma, 60 or 120 mg/kg
Description: as §1

[33] = tested on: 2861-HX xenograft; experiment: MSI xenograft model efficacy; assay type: in vivo, mouse; settings: colorectal carcinoma, 60 or 120 mg/kg
Description: as §1

[34] = tested on: IGROV1 xenograft; experiment: MSI xenograft model efficacy; assay type: in vivo, mouse; settings: IGROV1, Ovarian carcinoma; 60 or 120 mg/kg
Description: as §1

COX1, sequence (P23219 24-599): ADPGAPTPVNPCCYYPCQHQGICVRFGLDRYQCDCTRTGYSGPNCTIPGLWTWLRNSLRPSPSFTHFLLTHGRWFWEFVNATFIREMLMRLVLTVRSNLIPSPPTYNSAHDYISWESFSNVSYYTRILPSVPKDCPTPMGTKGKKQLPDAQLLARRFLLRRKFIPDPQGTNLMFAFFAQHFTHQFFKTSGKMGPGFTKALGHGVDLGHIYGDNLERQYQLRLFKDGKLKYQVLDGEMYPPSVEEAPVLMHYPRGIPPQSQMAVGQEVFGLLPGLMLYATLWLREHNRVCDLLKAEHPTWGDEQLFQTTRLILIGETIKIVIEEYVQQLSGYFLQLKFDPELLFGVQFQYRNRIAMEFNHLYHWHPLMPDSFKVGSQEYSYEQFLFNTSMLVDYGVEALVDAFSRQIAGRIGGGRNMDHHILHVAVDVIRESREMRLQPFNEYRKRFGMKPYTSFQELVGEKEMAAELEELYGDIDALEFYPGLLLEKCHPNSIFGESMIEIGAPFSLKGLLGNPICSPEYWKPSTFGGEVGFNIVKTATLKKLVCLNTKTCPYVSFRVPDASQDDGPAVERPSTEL

In the case of `CCc1c(N2CCN(C(=O)c3ncnc(C)c3O)CC2)c(=O)n2nc(C3=CCOCC3)nc2n1CC(=O)Nc1ccc(C(F)(F)F)cc1Cl` [HRO761], the GI50 [1] is reported as 0.03 µM, the GI50 [2] is reported as ≥ 10 µM and the GI50 [3] is reported as 0.178 µM. The GI50 [4] was ≥ 10 µM, the GI50 [5] was 7.29 µM and the GI50 [6] was 1.31 µM. The GI50 [7] was 1.25 µM, the GI50 [8] was 0.145 µM and the GI50 [9] was 0.016 µM. For the same compound, the GI50 [10] was 4.63 µM, the GI50 [11] was ≥ 10 µM and the GI50 [12] was 0.473 µM. The GI50 [13] was 0.228 µM, the GI50 [14] was 1.74 µM and the GI50 [15] was ≥ 10 µM. The GI50 [16] was 0.044 µM, the GI50 [17] was ≥ 10 µM and the IC50 [18] was > 25 µM. The GI50 [19] was ≥ 10 µM, the GI50 [20] was 0.051 µM and the GI50 [21] was 0.243 µM. For the same compound, the GI50 [22] was 0.452 µM, the GI50 [23] was 0.104 µM and the “Safety pharmacology panel: COX1” value [24] was 9 μM. For the same compound, the GI50 [25] was 0.303 µM, the GI50 [26] was ≥ 10 µM and the GI50 [27] was 0.035 µM. For the same compound, the Best average response [28] was -40, the Best average response [29] was -100 and the Best average response [30] was -36. For the same compound, the Best average response [31] was -70, the Best average response [32] was 7 and the Best average response [33] was -70. The Best average response [34] was -38.
